In patent US4596806A, “7-piperidino-1,2,3,5-tetrahydroimidazo[2,1-b]-quinazolin-2-one having platelet aggregation inhibitory activity” (Daiichi Seiyaku Co., Ltd., priority 1983, dated 1986):
Counter-ions that a name gives are not always drawn. Like-named read-outs stand apart in the source and are kept apart here.

Columns and labels:
platelet aggregation [1] = assay: Test of Platelet Aggregation Inhibition (in vitro), human PRP; format: cell-based; conditions: for IC50: Homo sapiens, Platelet, human blood, read-out: Platelet Aggregation Inhibitory Activity (in vitro: IC50)
Experimental: (§1) The test was performed as follows in accordance with the method of Ashida et al, Thrombosis and Haemostasis, Vol. 40, p542 (1979).
(§2) Blood was taken by puncture from the heart of a Wistar Imamichi rat under anesthesia with pentobarbital into a syringe containing 1/10 volume of a 3.13% aqueous solution of sodium citrate dihydrate, and the citrated blood was centrifuged to obtain a platelet-rich-plasma (PRP). In the same manner, citrated blood was collected from the vein of a healthy human who had not taken aspirin or any other anti-inflammatory agent since before 10 days, followed by centrifugation to obtain PRP. 0.005 ml of each test compound was added to 0.445 ml each of these PRP samples, and the system was warmed at 30° C. for 1 minute. 0.05 ml of an aggregation inducer (ADP or collagen) was then added thereto, and platelet aggregation was determined according to the method of Born, Nature, Vol. 194, p927 (1962). The inhibitory activity of platelet aggregation was expressed in terms of 50% inhibition concentration, and the results obtained are shown in Table 2.

platelet aggregation [2] = assay: Test of Platelet Aggregation Inhibition (in vitro), rat PRP; format: cell-based, rat (Wistar Imamichi); conditions: rat blood, read-out: Platelet Aggregation Inhibitory Activity (in vitro: IC50)
Experimental: as §1, §2

platelet aggregation [3] = assay: Test of Platelet Aggregation Inhibition (ex vivo, p.o.); format: in vivo, rat (male Wistar Imamichi); conditions: for inhibition at 1 mg/kg / inhibition at 10 mg/kg: Rattus norvegicus, Platelet, po, 1 h, read-out: Platelet Aggregation Inhibitory Activity (ex vivo: % inhibition); for inhibition at 1 mg/kg: p.o. 1 mg/Kg; for inhibition at 10 mg/kg: p.o. 10 mg/Kg; for aggregation inhibitory activity ex vivo (in words): p.o. 10 mg/Kg or 1 mg/Kg, ADP- or collagen-induced
Experimental: One hour later, citrated blood was taken from the heart, and platelet aggregation was determined in the same manner as described in Test Example 2.

circulatory system = assay: Test of Influence on Circulatory System (blood pressure, heart beat); format: in vivo, rat (male normal SLC-Wistar); conditions: p.o. 50 mg/Kg
Experimental: 5 or 6 male normal SLC-Wistar rats per group (body weight: 205-255 g) orally received 50 mg/Kg of the test compound, and the blood pressure (tail cuff method) and the heart beats were measured with the passage of time in order to elucidate influences of the test compound on the circulatory system.

[4] = Solubility Test (water-solubility); format: physicochemical
[5] = pH 2, Tap Water, solution pH about 2

| Structure (SMILES) | IC50 (platelet aggregation [1]; inducer ADP) [nM] | IC50 (platelet aggregation [1]; inducer collagen) [nM] | IC50 (platelet aggregation [2]; inducer ADP) [nM] | IC50 (platelet aggregation [2]; inducer collagen) [nM] | inhibition at 1 mg/kg (platelet aggregation [3]; inducer ADP) [%] | inhibition at 1 mg/kg (platelet aggregation [3]; inducer collagen) [%] | inhibition at 10 mg/kg (platelet aggregation [3]; inducer ADP) [%] | inhibition at 10 mg/kg (platelet aggregation [3]; inducer collagen) [%] | aggregation inhibitory activity ex vivo (in words) (platelet aggregation [3]) | Increase in Heart Beat (circulatory system; 1 hr after admin.) [%] | Reduction in Blood Pressure (circulatory system; 1 hr after admin.) [%] | Increase in Heart Beat (circulatory system; 2 hr after admin.) [%] | Reduction in Blood Pressure (circulatory system; 2 hr after admin.) [%] | Increase in Heart Beat (circulatory system; 3 hr after admin.) [%] | Reduction in Blood Pressure (circulatory system; 3 hr after admin.) [%] | Increase in Heart Beat (circulatory system; 5 hr after admin.) [%] | Reduction in Blood Pressure (circulatory system; 5 hr after admin.) [%] | Increase in Heart Beat (circulatory system; 6 hr after admin.) [%] | Reduction in Blood Pressure (circulatory system; 6 hr after admin.) [%] | solubility ([4]; Water at pH 4) [µg/mL] | other results |
| --- | --- | --- | --- | --- | --- | --- | --- | --- | --- | --- | --- | --- | --- | --- | --- | --- | --- | --- | --- | --- | --- |
| Cl.Cl.Nc1ccc2c(c1)CN1CC(=O)NC1=N2 [BL-7-NH2, 7-amino-1,2,3,5-tetrahydroimidazo[2,1-b]quinazolin-2-one dihydrochloride] | 50000 | 28000 | 170000 | 16000 | – | – | – | – | – | – | – | – | – | – | – | – | – | – | – | – | anti-platelet aggregation activity (in words) (platelet aggregation [1]; in vitro, Table 2 results (human and rat PRP)): scarcely exhibits platelet aggregation inhibitory activity |
| Cc1cccc2c1CN1CC(=O)NC1=N2.Cl [BL-3459, 6-methyl-1,2,3,5-tetrahydroimidazo[2,1-b]quinazolin-2-one hydrochloride] | 1700 | 700 | 5000 | 760 | 12 | 41 | 31 | 54 | cannot be regarded significant | 18 | 23 | 20 | 28 | 17 | 26 | 18 | 34 | 19 | 35 | 10 | Reduction in Blood Pressure (circulatory system; 24 hr after admin.): 12%; solubility [4, 5]: 100 µg/mL |
| O=C1CN2Cc3c(ccc(Cl)c3Cl)N=C2N1 [BL-4162, 6,7-dichloro-1,2,3,5-tetrahydro[2,1-b]quinazolin-2-one hydrochloride] | 1200 | 500 | 800 | 20 | 10 | 33 | 8 | 53 | cannot be regarded significant | 28 | 11 | 37 | 16 | 31 | 17 | 31 | 14 | 31 | 13 | 10 | Increase in Heart Beat (circulatory system; 4 hr after admin.): 37%; Reduction in Blood Pressure (circulatory system; 4 hr after admin.): 14%; solubility [4, 5]: 10 µg/mL |
